Data from patent US7182950B2, “Nano-sized self-assembled liquid dilutable vehicles” (Nutralease Ltd., priority 2002, dated 2007).
Each block holds one compound with its values, some of them ahead of it.

Legend:
[1] = assay type: physicochemical
Excerpt: The invention will now be described with reference to some non-limiting specific embodiments. The invention will first be illustrated in reference to the attached drawings to be followed by a more detailed description below. Turning to FIG. 1, there are shown two different phase diagrams (1A and 1B) of ternary systems comprising oil/water/surfactant according to the prior art. Such a ternary system forms microemulsions. As a function of the relative amounts of each of the three components one may achieve a two-phase or a mono-phase liquid concentrate comprising of the microemulsion where the boundaries of the stable phases depend on the relative concentration of each component. […] A two-phase region at equilibrium, at 35, prevails at all other concentrations of the ternary system. […] A one phase stable isotropic region exists at 65. Turning to FIG. 2, a general ternary phase diagram 80 describing the nano-sized self-assembled structured concentrates of the present invention, A rather small two-phase concentrate region 90 and a large stable one-phase at 100 region are present. A micellar concentrate of the nano-sized self-assembled structures exists at 110, i.e. there is no aqueous phase. Adding a small amount of aqueous phase results in an oil continuous phase, which is actually water in oil (W/O) region at 120A, 120B and 120C along the tree dilution lines. Addition of an increasing amount of aqueous solution results in a bi-continuous region at 130A, 130B and 130C along the three dilution lines. At the point where the amount of aqueous solution is greater than that of the oil phase there exists an aqueous continuous phase, which is actually an oil in water (O/W) region generally at 140A, 140B and 140C along the three dilution lines. Direct micelles exist only at the extreme at 150. It should be noted that along each concentration line as the concentration of the surfactant increases, the oil continuous phase may decrease is size while the bicontinuous and water continuous phases may increase in size. Turning to FIG. 3, a ternary phase diagram 170 describing another nanosized-structured concentrate of the present invention is shown. The oil phase, which is the desired solvent for achieving a single-phase system, is α-tocopherol acetate. The aqueous system comprises of water and a co-solvent—propylene glycol. As shown, a major portion of the four-component system is in one stable region 180, while only a minor portion 190 is a two-phase system. Phase diagrams, solubilization factors and efficiency of solubilization for lycopene, phytosterol and lutein in ternary systems according to lo the present invention are given in FIGS. 4–6. […] It should be noted that the ratio between each of the components of the oil phase to the surfactant is 1:3. […] As shown, upon further dilution with water, tie solubilization of lycopene drops over the dilution factor. In case the system is diluted from 67% water to 80% water, the dilution factor (from inversion) is 80/67=1.19. The solubilization on the other hand decreases by a factor of 450/312.5=1.44. This indicates structural change in the nano-sized self-assembled concentrates. Turning to FIG. 4C, the efficiency of the solubilization in the described system is represented (α). The efficiency factor, α, is defined as lycopene/oil(wt/wt)X 100. As shown, the maximum solubilization on an oil base is 0.8 wt %. […] Tuming to FIG. 4D, there is shown the solubilization capacity of the lycopene as a function of the nature of the surfactant system. As shown, for the case where the surfactant is Tween 60, the efficiency factor (solubilization based on the oil phase) is 0.8 wt %. However, this value is increased to 1.05, 1.1, 1.1 and 1.16 (wt %) for the cases where the surfactant is ethoxylated monoglycerides (EM), triglycerol monooleate (TM), sugar ester (SE), and a mixture of SE+EM, respectively. It should be noted that such efficiency factors are equivalent to a solubilization factor of up to 25 fold. […]

[2] = Solubility of lycopene in oil (oil dissolution capacity); assay type: physicochemical
Excerpt: The invention will now be described with reference to some non-limiting specific embodiments. The invention will first be illustrated in reference to the attached drawings to be followed by a more detailed description below. Turning to FIG. 1, there are shown two different phase diagrams (1A and 1B) of ternary systems comprising oil/water/surfactant according to the prior art. Such a ternary system forms microemulsions. As a function of the relative amounts of each of the three components one may achieve a two-phase or a mono-phase liquid concentrate comprising of the microemulsion where the boundaries of the stable phases depend on the relative concentration of each component. […] A two-phase region at equilibrium, at 35, prevails at all other concentrations of the ternary system. […] A one phase stable isotropic region exists at 65. Turning to FIG. 2, a general ternary phase diagram 80 describing the nano-sized self-assembled structured concentrates of the present invention, A rather small two-phase concentrate region 90 and a large stable one-phase at 100 region are present. A micellar concentrate of the nano-sized self-assembled structures exists at 110, i.e. there is no aqueous phase. Adding a small amount of aqueous phase results in an oil continuous phase, which is actually water in oil (W/O) region at 120A, 120B and 120C along the tree dilution lines. […]

Concentration (%) of phytosterol [1]: 1.0%
Efficiency factor α, phytosterol/oil (wt/wt) x 100, maximum solubilization on an oil base [1]: 16.7 wt %
Increase of solubilization capacity over aqueous or oil phase alone or with surfactant [1]: 7-20 fold
Maximum solubilization [1]: 1.65 % (wt)
Maximum solubilization in 1 Kg of nano-sized self-assembled structured concentrate [1]: 165 mg
Solubilization decrease factor on dilution [1]: 3.6
Solubilization factors [1]: 6, 7
Solubilization in 1 Kg of concentrate after dilution [1]: 45 mg
Compound: phytosterol

Aqueous solution concentration at which maximum solubilization occurs (bi continuous region) [1]: 40 to 60%
Increase of solubilization capacity over aqueous or oil phase alone or with surfactant [1]: 7-20 fold
Solubilization in the oil in water (O/W) region [1]: limited solubilization
Compound: CC1=C[C@H](O)CC(C)(C)[C@H]1/C=C/C(C)=C/C=C/C(C)=C/C=C/C=C(C)/C=C/C=C(C)/C=C/C1=C(C)C[C@@H](O)CC1(C)C [lutein]

Concentration (%) of lycopene [1]: 0.02%
Efficiency factor α, lycopene/oil (wt/wt) x 100, maximum solubilization on an oil base [1]: 0.8 wt %
Factor of decrease of solubilization on dilution [1]: 1.44
Increase of solubilization capacity over aqueous or oil phase alone or with surfactant [1]: 7-20 fold
Maximum solubility (solubility capacity) in 1 Kg of nano-sized self-assembled structured concentrate [1]: 450 mg
Maximum solubilization [1]: 0.45 % (wt)
Solubility capacity in 1 Kg of concentrate after dilution [1]: 312.5 mg
Solubilization factor [1]: up to 25 fold
Solubilization relative to the oil dissolution capacity [1]: up to 17.7 fold
Solubility of lycopene in oil [2]: ca. 0.045 wt %
Compound: CC(C)=CCC/C(C)=C/C=C/C(C)=C/C=C/C(C)=C/C=C/C=C(C)/C=C/C=C(C)/C=C/C=C(\C)CCC=C(C)C [lycopene]

The remaining lines, values behind:

Compound: lutein ester
Concentration (%) of lutein ester [1]: 0.047%

Compound: CC1=C[C@H](O)CC(C)(C)[C@H]1/C=C/C(C)=C/C=C/C(C)=C/C=C/C=C(C)/C=C/C=C(C)/C=C/C1=C(C)C[C@@H](O)CC1(C)C [free lutein]
Concentration (%) of free lutein [1]: 0.006%
